According to patent US12187761B2, “Compounds, compositions, and methods for the treatment of disease” (F-star Therapeutics, Inc., priority 2017, dated 2025):

Columns and labels:
[1] = test system: NF-κβ; assay: Induction of NF-κβ in THP1 dual cells (SEAP reporter); assay type: cell-based; settings: 20 h incubation, SEAP levels at 620-655 nm
Protocol: (§1) Example 6. In Vitro Induction of IRF and NF-κβ in THP1 Cells Table 2
(§2) THP1 dual cells grown in complete media were treated with various concentrations of a compound of the present disclosure or DMSO control. Dual cells carry both secreted embryonic alkaline phosphatase (SEAP) reporter gene under the control of an IFN-β minimal promoter fused to five copies of the NF-kB consensus transcriptional response element to measure NF-kB activity and Lucia reporter gene under the control of an ISG54 minimal promoter to measure IRF activity. After 20 h incubation, IRF activity was assessed using QUANTI-luc to measure levels of Lucia and NF-kB activity was determined by measure SEAP levels at 620-655 nm. % induction was calculated from fold change in luminescence/absorbance compared to DMSO treated sample. […] EC50 values were generated by curve fit in Xlfit.
(§3) Cells grown in complete media were treated with various concentrations of a compound of the disclosure or DMSO control. Dual cells carry both secreted embryonic alkaline phosphatase (SEAP) reporter gene under the control of an IFN-β minimal promoter fused to five copies of the NF-kB consensus transcriptional response element to measure NF-kB activity and Lucia reporter gene under the control of an ISG54 minimal promoter to measure IRF activity. After 20 h incubation, IRF activity was assessed using QUANTI-luc to measure levels of Lucia and NF-kB activity was determined by measure SEAP levels at 620-655 nm. % induction was calculated from fold change in luminescence/absorbance compared to DMSO treated sample. EC50 values are generated by curve fit in Xlfit.

[2] = test system: IRF; assay: Induction of IRF in THP1 dual cells (ISG54 promoter Lucia reporter); assay type: cell-based; settings: 20 h incubation, Lucia reporter (QUANTI-luc)
Protocol: as §1, §2, §3

Compound | EC50 [1] | EC50 [2]
NCCCCCCCCCCOc1ccc(C(=O)Oc2ccc(CSP3(=O)OC[C@H]4O[C@@H](n5cnc6c(N)ncnc65)[C@H](F)[C@@H]4OP(=O)(O)OC[C@H]4O[C@@H](n5ccc(=O)[nH]c5=O)[C@H](F)[C@@H]4O3)cc2)cc1 (some centres unmarked) [Compound 1] | 500 to 1000 nM | < 50 nM
Nc1ncnc2c1ncn2[C@@H]1O[C@@H]2COP(=O)(SCc3ccc(OC(=O)c4ccc(OCCCCCCCCCCO)cc4)cc3)O[C@H]3[C@@H](F)[C@H](n4ccc(=O)[nH]c4=O)O[C@@H]3COP(=O)(O)O[C@H]2[C@H]1F (some centres unmarked) [Compound 2] | 500 to 1000 nM | < 50 nM
NCCCOCCOCCOCCOc1ccc(C(=O)Oc2ccc(CSP3(=O)OC[C@H]4O[C@@H](n5cnc6c(N)ncnc65)[C@H](F)[C@@H]4OP(=O)(O)OC[C@H]4O[C@@H](n5ccc(=O)[nH]c5=O)[C@H](F)[C@@H]4O3)cc2)cc1 (some centres unmarked) [Compound 7] | 1000 to 2000 nM | 50 to 500 nM
C=CCCC(=O)NCCCCCCCCCCCCOc1ccc(C(=O)Oc2ccc(CSP3(=O)OC[C@H]4O[C@@H](n5cnc6c(N)ncnc65)[C@H](F)[C@@H]4OP(=O)(O)OC[C@H]4O[C@@H](n5ccc(=O)[nH]c5=O)[C@H](F)[C@@H]4O3)cc2)cc1 (some centres unmarked) [Compound 8] | > 2000 nM | 1000 to 2000 nM
